Test results as given in patent publication US7947312B2, “Method of preparation and composition of a water soluble extract of the bioactive component of the plant species Uncaria for enhancing immune, anti-inflammatory, anti-tumor and DNA repair processes of warm blooded animals” (priority 2002, dated 2011).
Structures can show the parent of a compound that is named as a salt.

Columns and labels:
[1] = test system: HL-60 human leukemic cells; test: In vitro cytotoxicity in HL-60 cells, MTT assay (Table 2); type: cell-based; conditions: Homo sapiens, HL-60; no base hydrolysis
Method: In Table 2, the in vitro cytotoxicity of the various components were determined in HL-60 human leukemic cells using the MTT assay and calculation of IC50 values as described in detail elsewhere. Quinic acid ester content was determined by the Bartos method (Bartos, 1980). […] The quinic acid traveling between Rf=0.2-0.3 was eluted from the TLC plates with 1% aqueous ammonia and the relative quantity estimated by absorption at 200 nm as ± being less than 0.050 and “++++” denoting the highest amount detected, with a decrease in the number of “+” signs corresponding to a decrease in the amount of QA detected.

[2] = test system: human HL-60 leukemic cells; test: In vitro growth inhibition by QA salts in cultured HL-60 cells, MTT, 72 hr (FIG. 8); type: cell-based; conditions: for in vitro cytotoxicity compared to C-MED-100 (FIG. 8): HL-60 cells
Method: QA was purchased from Sigma (>99%). QA salts were synthesized by neutralization with the appropriate base, i.e., NH4OH, NaOH, Ca(OH)2, Zn(OH)2, LiOH, KOH, lysine or histidine. Serial dilutions of test compounds were added to human HL-60 leukemic cells (0.05×10^6 cells/ml) in 96-well, flat bottomed microtiter plates to give final concentrations in the cultures up to 3000 μg/ml. The plates were incubated for 72 hr at 37 C, pulsed with 20 μl MTT (5 mg/ml) for 3 hr, and the color estimated spectrophotometrically at 540 nm as described previously. (Schweitzer, C M et al. Spectrophotometric determination of clonogenic capacity of leukemic cells in semisolid microtiter culture systems. Experimental Hematology 21: 573-578, 1993). IC50 values were calculated and compared based on the live/dead ratio of cells.

[3] = test system: Raji human Burkitt's lymphoma; test: Raji cell proliferation (Coulter count, trypan blue); type: cell-based; conditions: 48 hours
Method: FIG. 3A illustrates Raji cells (2×10^5) that were cultured in the presence of indicated concentrations of C-MED-100®, QAA or QA. Growth rate was assayed after 48 hours by counting triplicate samples of duplicate cultures in a Coulter cell counter. Results from one representative experiment out of two performed is presented as mean values of cell/ml±standard deviation (S.D).
FIG. 3B illustrates triplicate samples of cells from duplicate parallel cultures stained with trypan blue at indicated times and counted.
(§1) Cell cultures: Raji human Burkitt's lymphoma (CCL-86), Jurkat human acute T-cell leukemia (TIB-152), 70Z/3 mouse pre-B lymphocyte cell line (TIB-158), or mouse spleen cells were used in the experiments. The cells were cultured in RPMI medium (Life Technologies) supplemented with 10% FCS, 10 mM HEPES buffer, antibiotics, 50 μM 2-mercaptoethanol and 1 mM sodium pyruvate (all supplements from Life Technologies) at 37° C., 5% CO2. The number of Raji cells in duplicate cultures were determined with a Coulter Z1 cell counter (Beckman Coulter Inc, Fullerton, Calif., USA) three times each. The number of viable and dead cells were determined using trypan blue exclusion, by counting three independent samples from duplicate cultures. […] Proliferation was detected by measuring thymidine incorporation after a 4 hours pulse with 1 μCi ^3[H]-thymidine (Amersham Pharmacia).

Raji cells = test: Raji cell death and apoptosis (Annexin V / 7AAD flow cytometry); type: cell-based, human
From the text: Cells from the same cultures as in FIG. 3B were stained with Annexin V and 7AAD and analyzed by flow cytometry. The results are presented as the mean number of Annexin V^+ 7AAD^− (apoptotic) or 7AAD^+ (dead) cells±S.D. of duplicates from three experiments with similar results. Statistically significant differences (*p<0.05) and (**p<0.01), compared to Raji cells grown in medium (no drug).
as §1

mouse spleen cells = type: cell-based; conditions: for fraction of apoptotic T cells: Con A stimulated cultures (FIG. 4B); for induction of cell death in mitogen-stimulated spleen cells: mouse
From the text: Cells from parallel cultures were stained with trypan blue and the mean absolute number of viable and dead cells/ml from one out of three similar experiments are shown. […] Aliquots of the above cultures were stained with Annexin V and 7AAD and analyzed by flow cytometry. The results are presented as the mean number of Annexin V^+7AAD^− (apoptotic) and 7AAD^+ (dead) cells/ml±S.D. of duplicates from three experiments with similar results. Statistically significant differences (*p<0.05) and (**p<0.01) compared to the control cultures stimulated with Con A (FIG. 4B) or LPS (FIG. 4C) alone.
Cell cultures: Raji human Burkitt's lymphoma (CCL-86), Jurkat human acute T-cell leukemia (TIB-152), 70Z/3 mouse pre-B lymphocyte cell line (TIB-158), or mouse spleen cells were used in the experiments. The cells were cultured in RPMI medium (Life Technologies) supplemented with 10% FCS, 10 mM HEPES buffer, antibiotics, 50 μM 2-mercaptoethanol and 1 mM sodium pyruvate (all supplements from Life Technologies) at 37° C., 5% CO2. The number of Raji cells in duplicate cultures were determined with a Coulter Z1 cell counter (Beckman Coulter Inc, Fullerton, Calif., USA) three times each. The number of viable and dead cells were determined using trypan blue exclusion, by counting three independent samples from duplicate cultures. Cells were stained with 2 μg/ml 7-amino-actinomycin D (7AAD; Sigma-Aldrich, St Louis, Mo., USA) and with Annexin V (Molecular Probes) according to the manufacturer's protocol and the cells were defined as apoptotic (Annexin V+7AAD^−) or dead (7AAD^+) by flow cytometry. Spleen cells were polyclonally activated with 2.5 μg/ml concanavalin A (Con A; Amersham Pharmacia, Uppsala, Sweden) or 10 μg/ml lipopolysaccharide (LPS; Sigma-Aldrich). PMA (50 ng/ml) and ionomycin (1 μM) (both from Sigma-Aldrich) and pyrollidine dithiocarbamate (PDTC) (100 μM, EMD Bioscience Inc, Calbiochem, San Diego, Calif., USA) were used in some cultures as indicated. Proliferation was detected by measuring thymidine incorporation after a 4 hours pulse with 1 μCi ^3[H]-thymidine (Amersham Pharmacia).

NF-κB = NF-κB reporter (luciferase) in transfected Jurkat T cells; type: cell-based, human; conditions: PMA 50 ng/ml and ionomycin 1 μM, 2 h pre-culture, 6 h stimulation
Method: FIG. 5A illustrates Jurkat T that are cells transfected with a NF-κB reporter construct were pre-cultured with various concentrations of QA or C-MED-100® for two hours. PMA (50 ng/ml) and ionomycin (1 μM) were thereafter added and the cells incubated for another six hours. The mean induction of luciferase activity in triplicate cultures from one representative experiment out of four are shown (left panel). QA induced no cell death or apoptosis in Jurkat T cells at concentrations which inhibited NF-κB activity. Jurkat T cells were incubated with various concentrations of QA for 24 hours and thereafter stained with Annexin V and 7AAD before analysis by flow cytometry. The data are the mean values±S.D. of triplicates from one representative experiment out of two performed (right panel). Transient transfection and analysis of luciferase activity: The reporter construct containing NF-κB binding sequences and the luciferase reporter gene was previously described. […] The cells were lysed and aliquots of the lysates analyzed for luciferase activity using the Luciferase Assay System (Promega, Madison, Wis.). Luminiscence was quantitated in a MicroLumat LB 96 P luminometer (EG&G Berthold, Wallac […], Upplands Väsby, Sweden).

Structure (SMILES): O=C(O)[C@]1(O)C[C@@H](O)[C@@H](O)[C@H](O)C1 [QAA, quinic acid ammonium salt]
- IC50 [1]: 500 µg/mL
- in vitro cytotoxicity compared to C-MED-100 (FIG. 8) [2]: in vitro cytotoxicity comparable to that of C-MED-100®
- IC50 ([2]; Homo sapiens, HL-60): ≤ 1100 µg/mL
- Raji cell proliferation [3]: inhibited cell proliferation in a dose dependent manner
- induction of cell death in Raji cells (Raji cells): do not induce cell death
- fraction of apoptotic T cells (mouse spleen cells): significantly reduced the fraction of apoptotic T cells
- induction of cell death in mitogen-stimulated spleen cells (mouse spleen cells): neither C-MED-100®, QAA nor QA induce cell death
- NF-κB activity (luciferase reporter) (NF-κB): inhibited the NF-κB activity to a similar extent as QA

Structure (SMILES): O=C(O)C1(O)CC(O)C(O)C(O)C1 (stereo not drawn) [QA, 1,3,4,5-tetrahydroxy-cyclohexanecarboxylic acid]
- IC50 [1]: > 2300 µg/mL
- in vitro cytotoxicity compared to C-MED-100 (FIG. 8) [2]: much greater in vitro cytotoxicity than does C-MED-100®
- Raji cell proliferation [3]: neither inhibited the proliferation of Raji tumor cells
- induction of cell death in Raji cells (Raji cells): do not induce cell death
- fraction of apoptotic T cells (mouse spleen cells): tendency to reduction (p=0.053)
- induction of cell death in mitogen-stimulated spleen cells (mouse spleen cells): neither C-MED-100®, QAA nor QA induce cell death
- NF-κB activity (luciferase reporter) (NF-κB): in a dose dependent manner, inhibited the NF-κB activity
